Measurements published in patent publication US7858349B2, “Anti-cancer compounds” (The Regents of the University of Colorado, priority 1999, dated 2010).
pIC50: −log10 of the molar value. Where two headings read alike, the source gives them in different places.

Tested on: SCLC strain SHP-77
Experiment: MTT assay for cell survival, SCLC SHP-77 in vitro
Assay type: cell-based, human
Settings: ED50 for killing of SCLC strain SHP-77 in vitro, 4 days, 0 = no detectable activity

`O=C(c1ccccc1)c1ccc2n1CCC2C(=O)N[C@@H](Cc1ccc(OCc2c(Cl)cccc2Cl)cc1)C(=O)N1CCN(C/C=C/c2ccccc2)CC1` (stereo partly drawn) [Analog M-1666, Ktlc-OC2Y-tCip] was tested, and the pIC50 (read-out: SCLC SHP-77 IC50) was less than 4.22.

`O=C(N[C@@H](Cc1ccc(OCc2c(Cl)cccc2Cl)cc1)C(=O)N1CCN(c2ncccn2)CC1)C(=Cc1ccccc1)c1ccccc1` [Analog M-1670, Pcn-OC2Y-Pmpz] showed a pIC50 (read-out: SCLC SHP-77 IC50) of 4.30.

Compound `O=C(C=Cc1c(F)c(F)c(F)c(F)c1F)NC(Cc1ccc2ccccc2c1)C(=O)N1CCC(N2CCCCC2)CC1` (stereo not drawn) [Analog M-1250, F5c-Nal-Pipp] has a pIC50 (read-out: SHP-77 In vitro IC50) of 5.12.

In the case of `CC1(C)CC(NC(=O)[C@H](Cc2ccc(C#N)cc2)NC(=O)c2cnccn2)CC(C)(C)N1` [Analog M-1524, 2Pyz-PCNF-Atmp], the pIC50 (read-out: SCLC SHP-77 IC50) was less than 4.22.

`CC1(C)CC(NC(=O)[C@H](Cc2ccc(OCc3c(Cl)cccc3Cl)cc2)NC(=O)c2ccc(N)nc2)CC(C)(C)N1` [Analog M-1596, 6Ani-OC2Y-Atmp] showed a pIC50 (read-out: SCLC SHP-77 IC50) of less than 4.22.

Work on `CC1(C)CC(NC(=O)[C@@H](Cc2ccc(OCc3c(Cl)cccc3Cl)cc2)NC(=O)C(=Cc2ccccc2)c2ccccc2)CC(C)(C)N1` [Analog M-1682, Pcn-D-OC2Y-Atmp] yielded a pIC50 (read-out: SCLC SHP-77 IC50) of 5.74.

`O=C(C=Cc1c(F)c(F)c(F)c(F)c1F)NC(Cc1ccc(F)cc1)C(=O)N1CCN(C(c2ccccc2)c2ccc(Cl)cc2)CC1` (stereo not drawn) [Analog M-1202, F5c-PFF-Cbp] gave a pIC50 (read-out: SHP-77 In vitro IC50) of 4.52.

`Cc1nc2ccccc2c(C(=O)NC(Cc2ccc(OCc3c(Cl)cccc3Cl)cc2)C(=O)NC2CC(C)(C)NC(C)(C)C2)c1O` (stereo not drawn) [Analog M-1716, Hmqc-OC2Y-Atmp] was tested, and the pIC50 (read-out: SCLC SHP-77 IC50) was 5.14.

Work on `CC1(C)CC(NC(=O)C(Cc2cc(I)c(OCc3c(Cl)cccc3Cl)c(I)c2)NC(=O)C(=Cc2ccccc2)c2ccccc2)CC(C)(C)N1` (stereo not drawn) [Analog M-1760, Pcn-OCIY-Atmp] yielded a pIC50 (read-out: SCLC SHP-77 IC50) of 5.70.

`CC1CN(C(=O)C(Cc2ccc(I)cc2)NC(=O)C=Cc2c(F)c(F)c(F)c(F)c2F)CC(C)N1` (stereo not drawn) [Analog M-1254, F5c-PIF-Dmpz] gave a pIC50 (read-out: SHP-77 In vitro IC50) of 5.00.

With `CC1(C)CC(NC(=O)C(Cc2ccccc2)NC(=O)C=Cc2c(F)c(F)c(F)c(F)c2F)CC(C)(C)N1` (stereo not drawn) [Analog M-1178, F5c-Phe-Atmp] the pIC50 (read-out: SHP-77 In vitro IC50) was 4.82.

For `CC1(C)CC(NC(=O)C(Cc2ccc(C#N)cc2)NC(=O)c2c(F)c(F)c(F)c(F)c2F)CC(C)(C)N1` (stereo not drawn) [Analog M-1490, F5bz-PCNF-Atmp], the pIC50 (read-out: SCLC SHP-77 IC50) was less than 4.22.

`CC1(C)CC(NC(=O)C(Cc2ccc(OCc3c(Cl)cccc3Cl)cc2)NC(=O)C(C)(C)C)CC(C)(C)N1` (stereo not drawn) [Analog M-1736, Piva-OC2Y-Atmp] gave a pIC50 (read-out: SCLC SHP-77 IC50) of 4.89.

In the case of `CC1(C)CC(NC(=O)C2Cc3ccccc3CN2C(=O)C(=Cc2ccccc2)c2ccccc2)CC(C)(C)N1` (stereo not drawn) [Analog M-1770, Pcn-Tic-Atmp], the pIC50 (read-out: SCLC SHP-77 IC50) was 5.27.

For `O=C(C=Cc1cc(C(F)(F)F)cc(C(F)(F)F)c1)NC(Cc1ccc(I)cc1)C(=O)N1CCN(c2ccccn2)CC1` (stereo not drawn) [Analog M-1252, Tf2c-PIF-Pypz], the pIC50 (read-out: SHP-77 In vitro IC50) was less than 4.22.

`CC1(C)CC(NC(=O)C(Cc2ccc(OCc3c(Cl)cccc3Cl)cc2)NC(=O)c2cccnc2)CC(C)(C)N1` (stereo not drawn) [Analog M-1704, Pyrc-OC2Y-Atmp] showed a pIC50 (read-out: SCLC SHP-77 IC50) of 4.60.

`CC1(C)CC(NC(=O)C(Cc2ccc(C#N)cc2)NC(=O)COc2c(F)c(F)c(F)c(F)c2F)CC(C)(C)N1` (stereo not drawn) [Analog M-1488, F5po-PCNF-Atmp] showed a pIC50 (read-out: SCLC SHP-77 IC50) of less than 4.22.

In the case of `O=C(NC1CCN(Cc2ccccc2)CC1)[C@H](Cc1ccc(OCc2c(Cl)cccc2Cl)cc1)NC(=O)C12CC3CC(CC(C3)C1)C2` [Analog M-1678, Aca-OC2Y-Abzp], the pIC50 (read-out: SCLC SHP-77 IC50) was 5.11.

Work on `CC1(C)CC(NC(=O)C(Cc2ccc(OCc3c(Cl)cccc3Cl)cc2)NC(=O)C(c2ccc(Cl)cc2)c2ccc(Cl)cc2)CC(C)(C)N1` (stereo not drawn) [Analog M-1754, Bcpa-OC2Y-Atmp] yielded a pIC50 (read-out: SCLC SHP-77 IC50) of 5.82.

In the case of `CO[C@](C(=O)NC(Cc1ccc(OCc2c(Cl)cccc2Cl)cc1)C(=O)NC1CC(C)(C)NC(C)(C)C1)(c1ccccc1)C(F)(F)F` (stereo partly drawn) [Analog M-1750, (S)-MTPA-OC2Y-Atmp], the pIC50 (read-out: SCLC SHP-77 IC50) was 5.38.

Compound `CC1(C)CC(NC(=O)C(Cc2ccc(F)cc2)NC(=O)C(=Cc2ccccc2)c2ccccc2)CC(C)(C)N1` (stereo not drawn) [Analog M-1788, Pcn-PFF-Atmp] has a pIC50 (read-out: SCLC SHP-77 IC50) of 5.64.
